Test results taken from patent US7026359B1, “Utilization of a highly fluorinated oligomeric alkane in ophthalmology” (Bausch & Lomb Incorporated, priority 1999, dated 2006).

Legend:
Format in all cases: physicochemical
[1] = Sterilization in an autoclave (stability); settings: 121° C. in an autoclave
Description: The highly fluorinated oligomer (C6F13CHCH2)3 is dissolved in fluorocarbons and purified via an Al2O3 chromatographic column. After removal of the solvent the last traces of volatile contaminants are removed in a vacuum. The highly fluorinated trimer according to nuclear spin resonance, infrared and mass spectroscopic tests, a uniform and highly pure substance with a molecular weight of 1055. Charging with an active agent takes place under mild conditions via a solvent that is not miscible with the trimer after distribution to saturation concentration. β-Carotene as active agent changes the color of the oligomer slightly. […] The nuclear magnetic data of this substance are as follows: […]

[2] = Refractive index
[3] = Surface tension
[4] = Viscosity
[5] = Critical solubility temperature in hexane (CST), qualitative measure of lipophilicity / tissue penetration
Text: The tissue penetration capacity can be described qualitatively by the critical solubility temperature in hexane (abbreviation: CST). This qualitative measure of lipophilicity is at the same time a measure of the capacity for tissue penetration.

[6] = Density

Refractive index n^D20 [2]: 1.3351
Surface tension [3]: 19.5 mN/m
Viscosity [4]: 220 mPa·sec
Critical solubility temperature in n-hexane, CST [5]: 35 °C
Density [6]: 1.661 g/mL
Substance: (C6F13CHCH2)3 [Example 1]
Stability on sterilization [1]: without the physical or chemical properties of the substances being changed
